Laboratory results from patent US20160136118A1, “COMPOSITIONS AND METHODS FOR THE TREATMENT OF A COMMON COLD AND SYMPTOMS THEREOF” (3E THERAPEUTICS CORPORATION, priority 2007, published 2016).

Tests used:
[1] = system: human patients exposed to cat allergen; test: Single-blind study, exposure to cat allergen after contrast media pretreatment (Example 11); type: in vivo; settings: for Reactions on exposure to cat allergen: allergen diluted 1:10
Procedure: A single-blind study was conducted using three human patients. The patients were exposed to cat allergen at three different dilutions, 1:1,000, 1:100, and 1:10. […] Exposure to the 1:100 dilution of allergen caused a mild reaction in all of the patients. Exposure to the 1:10 dilution of allergen caused moderate reactions in all of the patients, with one patient in particular requiring some treatment for the reaction.
Patients were then pre-treated with VISIPAQUE®320 (iodixanol).
Patients were pre-treated with Iotrolan 280.
Table 1 summarizes the results and symptoms after exposure to a 1:10 dilution of cat allergen both with and without pretreatment with VISIPAQUE®320 or Iotrolan 280.

[2] = system: human patients exposed to cat allergen; test: Single-blind study, cat allergen at three dilutions with or without pretreatment, symptoms per patient (Example 12); type: in vivo; set-up: Drip / Congestion / Itch: scale not given here; settings: for Itch / Sneezes / Congestion / Drip: pretreatment
Procedure: A single-blind study was conducted using three human patients. Patients were pre-treated with VISIPAQUE®320 (Iodixanol) or not treated with contrast media. The patients were exposed to cat allergen at three different dilutions, 1:1000, 1:100, and 1:10. Patient symptoms of itch, drip, congestion, and sneeze were assessed.
Tables 2-4 show the results and symptoms after exposure to the indicated dilution of cat allergen both with and without pretreatment with VISIPAQUE®320.
In a similar study, patients were treated with Iotrolan 280 prior to exposure to 1:10, 1:100, or 1:1000 dilutions of cat allergen.

[3] = system: histamine, dust allergen and grass allergen injected into patient's arm; test: Skin reaction to injected histamine, dust allergen and grass allergen after topical pretreatment of the arm (Example 13); type: in vivo, human
Procedure: FIG. 1 is a photograph showing the response of the patient to 6 injections. Three substances were each injected twice at two different locations, for a total of 6 injections. Each substance was injected at one location that had been pretreated with CHOLOGRAFIN® meglumine and at a second location that had not been pretreated. CHOLOGRAFIN® meglumine, which comprises 80% Iodipamide in emollient, was applied topically to part of a patient's arm. Forty five minutes after application of the CHOLOGRAFIN® meglumine, each of the three substances was injected into the two different locations on the arm, one pretreated and one that was not pretreated. The three substances were histamine, dust allergen, and grass allergen. Referring to FIG. 1, the two histamine injections went into the upper level of the arm, the two dust allergen injections went into the middle level of the arm, and the two grass allergen injections went into the lower level of the arm. FIG. 1 is a photograph showing the resulting reactions taken 2.5 hours after the injections. […] The reactions of upper, middle and lower levels of the arm on the untreated sides were rated with scores of 3+, 4+, and 4+, respectively. The reactions of the upper, middle and lower levels of the arm on the pretreated sides were rated with scores of 1+, 2+, and 2+, respectively.

[4] = 1:10 dilution of cat allergen, pretreatment, three human patients
[5] = Patient 1, 1:10 concentration cat allergen
[6] = Patient 1, 1:100 concentration cat allergen
[7] = Patient 1, 1:1000 concentration cat allergen
[8] = Patient 2, 1:10 concentration cat allergen
[9] = Patient 2, 1:100 concentration cat allergen
[10] = Patient 2, 1:1000 concentration cat allergen
[11] = Patient 3, 1:10 concentration cat allergen
[12] = Patient 3, 1:100 concentration cat allergen
[13] = Patient 3, 1:1000 concentration cat allergen

CN(C(=O)CC(=O)N(C)c1c(I)c(C(=O)NC(CO)C(O)CO)c(I)c(C(=O)NC(CO)C(O)CO)c1I)c1c(I)c(C(=O)NC(CO)C(O)CO)c(I)c(C(=O)NC(CO)C(O)CO)c1I (centres unmarked) [Iotrolan 280, Iotrolan]
2×: Sneezes [1, 4]
mild reactions: Reactions on exposure to cat allergen ([1]; after pretreatment)
0: Itch [1, 4]
decreased reaction: Reaction to the cat allergen compared to the reaction without pretreatment ([1]; 1:10 dilution of cat allergen)

CC(=O)N(CC(O)CN(C(C)=O)c1c(I)c(C(=O)NCC(O)CO)c(I)c(C(=O)NCC(O)CO)c1I)c1c(I)c(C(=O)NCC(O)CO)c(I)c(C(=O)NCC(O)CO)c1I (centres unmarked) [Visipaque 320, iodixanol]
mild reactions: Reactions on exposure to cat allergen ([1]; after pretreatment)
0: Itch [2, 5] | Congestion [2, 6] | Drip [2, 6] | Itch [2, 6] | Congestion [2, 7] | Drip [2, 7] | Itch [2, 7] | Congestion [2, 8] | Drip [2, 8] | Itch [2, 8] | Congestion [2, 9] | Drip [2, 9] | Itch [2, 9] | Congestion [2, 10] | Drip [2, 10] | Itch [2, 10] | Drip [2, 11] | Congestion [2, 12] | Drip [2, 12] | Itch [2, 12] | Congestion [2, 13] | Itch [2, 13]
decreased symptoms: Symptoms in response to the cat allergen compared to the reaction without pretreatment ([2]; 1:1000, 1:100, 1:10 dilutions, three human patients)
not associated with any symptoms: Symptoms on exposure to cat allergen ([1]; cat allergen diluted 1:100, after pretreatment)
0 ×: Sneezes [2, 6] | Sneezes [2, 7] | Sneezes [2, 8] | Sneezes [2, 9] | Sneezes [2, 10] | Sneezes [2, 12] | Sneezes [2, 13]
2×: Sneezes [1, 4] | Sneezes [2, 5] | Sneezes [2, 11]
decreased reaction: Reaction to the cat allergen compared to the reaction without pretreatment ([1]; 1:10 dilution of cat allergen)

O=C(CCCCC(=O)Nc1c(I)cc(I)c(C(=O)O)c1I)Nc1c(I)cc(I)c(C(=O)O)c1I [iodipamide, Iodipamide]
decreased reaction: Reaction to histamine, dust allergen and grass allergen, pretreated versus untreated side [3]
